From article PMC12117998, “First Steps toward the Design of Peptides that Influence the Intracellular Palmitoylation Machinery” (Chembiochem, 2025)
No end group written: not given here.

Test system: HeLa cells
Assay: Co‐localization studies (confocal microscopy, PCC and MOC)
Format: cell-based
Details: 2 h, 5 μM CF‐DC‐2, CellLight ER‐RFP, mean ± SD of ≥37 cells, n = 2
Procedure: HeLa cells (30,000–40,000) were seeded into an 8‐well ibidi. For lysosomal and lipid droplet analysis, cells were treated for 30 min with 5 μM of CF‐labeled peptide combined with either 100 nM LysoTracker Red DND‐99 (Invitrogen) or a 1:1000 solution of distyryl Bodipy lipid droplet stain synthesized and kindly provided by Engelhardt et al.^[ [67] ^] diluted in serum‐free media under standard growth conditions. For Golgi analysis, cells were treated for 2 h with 5 μM CF‐labeled peptide under standard growth conditions. For the last 30 min of the incubation period, 1:100 BODIPY TR ceramide complexed to bovine serum albumine (BSA) (Invitrogen) was directly diluted into the well and incubated for the last 30 min together with the peptide. For ER staining, CellLight ER‐RFP, BacMam 2.0 (Invitrogen), was added to the cells and incubated overnight under standard growth conditions. The next day, the cells were treated for 2 h with 5 μM CF‐labeled peptides as described earlier. After the peptide and stain incubation, cells were washed three to four times with serum‐free medium. […] Pearson and Manders’ Coefficients were calculated using the JaCoP analysis tool.^[ [68] ^] For Golgi analysis, no PCC or MOC was determined as the unedited images contained a strong background signal.

In the case of “GLRKRLRKFRNKKMDHHCPW-NH2 [DC‐2, CPP sC18* fused to the DHHC motif derived from ZDHHC2/3/6/7/15/16/20]”, the “Mander's overlap coefficient (MOC), ER” value is reported as 0.60 ± 0.20 and the “Pearson correlation coefficient (PCC), ER” value is reported as 0.37 ± 0.10.
